Test results from patent US20080015237A1 (ASTRAZENECA AB, priority 2006, published 2008).

Biological target: human Kv1.5 channel (Homo sapiens, UniProt P22460)
Test: Test A: Rb+ efflux assay
Assay type: cell-based
Settings: CHO cells stably transfected with cDNA for human Kv1.5
Procedure: This assay identifies compounds that block the human Kv1.5 channel potassium channel heterologously expressed in Chinese Hamster Ovary (CHO) cells by means of Rb+ ion efflux using Flame Atomic Absorption Spectroscopy. For experimental studies, CHO cells stably transfected with cDNA for human Kv1.5 were grown as confluent layers in Falcon, 384-well tissue culture-treated black-walled clear-bottomed plates and the plates were incubated overnight at 37° C. in a cell culture incubator.
After incubating overnight the cell plates were washed and a buffer containing Rb+ ions were added to the cell plates. The plates were then incubated for another 3-4 hours in a CO2-incubator (37° C.). Following this incubation period plates were washed, compounds were added and subsequently a buffer containing elevated K+ concentrations were added in order to activate the Kv1.5 channel. Following a short incubation time, aliquots of the supernatants were transferred to supernatant plates for subsequent determination of the Rb+ content using Atomic Absorption Spectrometry (ICR8000 instrument, Aurora Biomed Inc.).

Chain of human Kv1.5 channel (P22460 whole entry): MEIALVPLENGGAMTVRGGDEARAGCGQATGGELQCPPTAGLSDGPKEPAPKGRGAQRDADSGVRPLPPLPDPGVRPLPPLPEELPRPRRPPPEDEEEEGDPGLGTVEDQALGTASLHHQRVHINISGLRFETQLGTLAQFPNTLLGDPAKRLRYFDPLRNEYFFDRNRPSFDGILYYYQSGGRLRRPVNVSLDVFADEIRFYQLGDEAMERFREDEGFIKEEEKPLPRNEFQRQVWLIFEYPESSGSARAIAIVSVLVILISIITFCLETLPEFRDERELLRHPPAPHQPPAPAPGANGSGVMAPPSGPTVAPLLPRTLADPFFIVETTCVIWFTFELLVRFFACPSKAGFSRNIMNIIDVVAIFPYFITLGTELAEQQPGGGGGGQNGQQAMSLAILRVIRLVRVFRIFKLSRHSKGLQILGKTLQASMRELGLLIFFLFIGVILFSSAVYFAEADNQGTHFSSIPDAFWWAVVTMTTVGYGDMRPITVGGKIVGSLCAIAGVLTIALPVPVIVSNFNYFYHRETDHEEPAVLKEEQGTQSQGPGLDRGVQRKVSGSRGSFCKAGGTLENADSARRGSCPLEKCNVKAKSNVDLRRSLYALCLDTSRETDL

SMILES	IC50
CC(CN1C(=O)c2ccccc2C1C(=O)NCc1ccccc1)c1ccc(Cl)cc1 (centres unmarked) [N-benzyl-2-[2-(4-chlorophenyl)propyl]-3-oxoisoindoline-1-carboxamide]	510 nM
CC(C)(C)NC(=O)C1c2ccccc2C(=O)N1Cc1ccccc1-c1ccc(F)c(F)c1 (single isomer, unassigned) [(1R or 1S)-N-(tert-butyl)-2-[(3′,4′-difluorobiphenyl-2-yl)methyl]-3-oxoisoindoline-1-carboxamide]	13000 nM
O=C(NCc1ccc(F)cc1)C1c2ccccc2C(=O)N1C(c1ccncc1)c1ccc(Cl)cc1 (centres unmarked) [2-[(4-chlorophenyl)(pyridin-4-yl)methyl]-N-(4-fluorobenzyl)-3-oxoisoindoline-1-carboxamide]	2100 nM
CC(C)(C)NC(=O)C1c2ccccc2C(=O)N1Cc1ccccc1-c1ccc(F)cc1 (centres unmarked) [N-(tert-butyl)-2-[(4′-fluorobiphenyl-2-yl)methyl]-3-oxoisoindoline-1-carboxamide]	7300 nM
CN(C)c1ccc(CNC(=O)C2c3ccccc3C(=O)N2Cc2cc(C(F)(F)F)cc(C(F)(F)F)c2)cc1 (centres unmarked) [2-[3,5-bis(trifluoromethyl)benzyl]-N-[4-(dimethylamino)benzyl]-3-oxoisoindoline-1-carboxamide]	1800 nM
CCCNC(=O)C1c2cc(Cl)ccc2C(=O)N1Cc1ccccc1-c1ccccc1 (centres unmarked) [2-(biphenyl-2-ylmethyl)-6-chloro-3-oxo-N-propylisoindoline-1-carboxamide]	1100 nM
CC(C)(C)NC(=O)C1c2ccccc2C(=O)N1Cc1cc(F)ccc1-c1ccccc1 (centres unmarked) [N-(tert-butyl)-2-[(4-fluorobiphenyl-2-yl)methyl]-3-oxoisoindoline-1-carboxamide]	5200 nM
CCC(c1ccccc1)N1C(=O)c2ccccc2C1C(=O)NCc1ccccc1 (centres unmarked) [N-benzyl-3-oxo-2-(1-phenylpropyl)isoindoline-1-carboxamide]	400 nM
CC(CN1C(=O)c2cc(Cl)c(Cl)cc2C1C(=O)NC(C)(C)C)c1ccc(Cl)cc1 (centres unmarked) [N-(tert-butyl)-5,6-dichloro-2-[2-(4-chlorophenyl)propyl]-3-oxoisoindoline-1-carboxamide]	1800 nM
CC(CN1C(=O)c2ccccc2C1C(=O)NCc1ccccc1Cl)c1ccc(Cl)cc1 (centres unmarked) [N-(2-chlorobenzyl)-2-[2-(4-chlorophenyl)propyl]-3-oxoisoindoline-1-carboxamide]	750 nM

More lines, now with the values ahead:

IC50	SMILES
410 nM	CC(C)(CO)CN1C(=O)c2ccc(Cl)cc2C1C(=O)NCc1cccc(OC(F)F)c1 (centres unmarked) [6-chloro-N-[3-(difluoromethoxy)benzyl]-2-(3-hydroxy-2,2-dimethylpropyl)-3-oxoisoindoline-1-carboxamide]
1900 nM	CC(CN1C(=O)c2ccccc2C1C(=O)NCc1ccc(F)cc1)c1ccc(Cl)cc1 (centres unmarked) [2-[2-(4-chlorophenyl)propyl]-N-(4-fluorobenzyl)-3-oxoisoindoline-1-carboxamide]
2500 nM	O=C(NCCCC(F)(F)F)C1c2cc(Cl)ccc2C(=O)N1Cc1ccccc1C(F)(F)F (centres unmarked) [6-chloro-3-oxo-N-(4,4,4-trifluorobutyl)-2-[2-(trifluoromethyl)benzyl]isoindoline-1-carboxamide]
1600 nM	CC(C)(C)NC(=O)C1c2cc(Cl)ccc2C(=O)N1Cc1ccccc1-c1ccccc1 (centres unmarked) [2-(biphenyl-2-ylmethyl)-N-(tert-butyl)-6-chloro-3-oxoisoindoline-1-carboxamide]
2400 nM	CC(C)(C)NC(=O)C1c2cc(C#N)ccc2C(=O)N1Cc1ccccc1-c1ccccc1 (centres unmarked) [2-(biphenyl-2-ylmethyl)-N-(tert-butyl)-6-cyano-3-oxoisoindoline-1-carboxamide]
2700 nM	O=C(NCCCC(F)(F)F)C1c2cc(F)ccc2C(=O)N1Cc1ccccc1-c1ccccc1 (centres unmarked) [2-(biphenyl-2-ylmethyl)-6-fluoro-3-oxo-N-(4,4,4-trifluorobutyl)isoindoline-1-carboxamide]
700 nM	CC(CN1C(=O)c2ccccc2C1C(=O)NCc1ccccc1C(F)(F)F)c1ccc(Cl)cc1 (centres unmarked) [2-[2-(4-chlorophenyl)propyl]-3-oxo-N-[2-(trifluoromethyl)benzyl]isoindoline-1-carboxamide]
